Experimental data published in patent US10034836B2, “Formulations of guanylate cyclase C agonists and methods of use” (SYNERGY PHARMACEUTICALS, INC., priority 2008, dated 2018).

Assays:
mice treated with TNBS = assay: Stool consistency in TNBS-induced murine model of colitis; type: in vivo; conditions: oral administration (FIG. 13)
Description: The anal administration of trinitrobenzene sulphonic acid (TNBS) is typically used to produce intestinal blockage, resulting in poor stool consistency.

BDF1 mice = assay: DSS-induced colitis in BDF-1 mice; type: in vivo; conditions: 5% DSS, 80 mg/kg oral gavage daily (positive control)
Description: The cGMP pathway mediates the anti-inflammatory effects of cellular molecules such as nitric oxide and heme oxygenase-1. […] The anti-inflammatory effects of the GCC agonist SP-304 were evaluated in a murine model of ulcerative colitis, the DSS-induced colitis model.
Forty eight BDF1 mice were divided into 8 treatment groups (6 mice/group). One group was not exposed to DSS (untreated control) and groups […] were treated with 5% DSS in the drinking water. DSS was refreshed daily. All mice were weighed on day −1, and treated with the test materials beginning on day −1. 4 hrs post dosing on Day 0, DSS was placed in the drinking water of groups 2-8 and DSS remained in the water until the end of the study. The test agents were administered at 9 AM daily until day 7. Animals were treated with a single dose of test agents and the groups were as follows:
All doses were administered by oral gavage using a 0.1 ml dose per 10 g body weight. To avoid cage-to-cage variation, different treatment groups were housed in the same cage and animals were ear punched for identification purposes. Mice were sacrificed on day 7, 4-6 hrs post last dosing. […] All slides were scored in a blinded manner.
Five different sections of the tissue were examined for histopathological scoring and the scores were averaged for each mouse. The histopathology scores in FIG. 17 are expressed as an average of 6 mice.

O=C(O)c1cc(/N=N/c2ccc(S(=O)(=O)Nc3ccccn3)cc2)ccc1O [Sulfasalazine]
stool consistency in mice treated with TNBS (mice treated with TNBS): restored normal stool consistency
severity of inflammation in large intestine (histopathology score) (BDF1 mice): considerably reduced
